The values that follow come from EP4603105A1, “PHARMACEUTICAL COMPOSITION CONTAINING CYCLIC COMPOUND HAVING SELECTIVE KRAS INHIBITORY EFFECT AGAINST HRAS AND NRAS” (CHUGAI SEIYAKU KABUSHIKI KAISHA, priority 2022, dated 2024).

*1 amine or outer side, *2 acyl side, *3 side chain or, on linkers, in order; H or OH if unused. Where a SMILES comes first, the peptide text is derived from it. Bridges are numbered along the chain shown (N, C = ends). [ ]: non-standard residue; d: D form. The star is where a group is joined. hPhe(3-Cl-4-CF3) = N[C@@H](CCc1ccc(C(F)(F)F)c(Cl)c1)C(=O)O; X51 = CCCN([C@@H](Cc1ccc(OC(F)(F)F)cc1)C(=O)[*:2])[*:1]; X37 = Cc1ccc(C[C@@H](C(=O)[*:2])N(CCC(C)C)[*:1])cc1; X44 = Cc1ccc(C[C@@H](C(=O)[*:2])N(CC2CCC2)[*:1])cc1; X50 = C=CCN([C@@H](Cc1ccc(C)cc1)C(=O)[*:2])[*:1]; X52 = C#CCN([C@@H](Cc1ccc(C)cc1)C(=O)[*:2])[*:1]; NMeGly(cPent) = CN[C@H](C(=O)O)C1CCCC1; NMeD = CN[C@@H](CC(=O)O)C(=O)O; NMeL = CN[C@@H](CC(C)C)C(=O)O; Morpholide = C1CN(*)CCO1; NMeA = CN[C@@H](C)C(=O)O; Ac5c = NC1(C(=O)O)CCCC1; Aze = O=C(O)[C@@H]1CCN1; Sar = CNCC(=O)O

Chain of HRAS wild-type protein (P01112 whole entry): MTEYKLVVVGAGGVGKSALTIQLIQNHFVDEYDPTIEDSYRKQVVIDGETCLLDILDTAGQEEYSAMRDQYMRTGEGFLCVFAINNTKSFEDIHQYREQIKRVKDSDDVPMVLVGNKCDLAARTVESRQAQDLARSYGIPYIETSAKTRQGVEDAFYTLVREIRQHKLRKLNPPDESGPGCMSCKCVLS

One experiment deals with GDP-bound NRAS wild-type protein (Homo sapiens, UniProt P01111). The experiment can be described thus: Binding to NRAS by surface plasmon resonance (SPR), KD and KD ratio to KRAS. The following applies: ratio of KD for GDP-bound NRAS wild-type protein to KD for KRAS. On the procedure: (§1) Surface plasmon resonance was used to analyze the binding affinity of compounds for KRAS, NRAS, and HRAS. The apparatus used was Biacore 8K, 8K+, or T200 (GE Healthcare), and the running buffer used was HBS (10 mM HEPES-NaOH, 150 mM NaCl, pH 7.4) containing 1 mM DTT, 10 mM MgCl2, 0.01% Tween 20, 10 µM GDP, and 4% DMSO.
Chain of GDP-bound NRAS wild-type protein (P01111 whole entry, the tested form may be a part): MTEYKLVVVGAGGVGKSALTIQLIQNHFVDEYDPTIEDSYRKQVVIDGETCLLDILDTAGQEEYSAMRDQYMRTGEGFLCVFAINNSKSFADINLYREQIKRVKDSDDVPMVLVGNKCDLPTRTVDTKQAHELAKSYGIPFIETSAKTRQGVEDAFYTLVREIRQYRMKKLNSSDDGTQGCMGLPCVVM
(§2) Biotinylated Avi-tag fusion KRAS, NRAS, and HRAS proteins were expressed in E. coli BL21 (DE3) strains, and after cells were homogenized, they were purified using Streptavidin Mutein Matrix and Superdex 75. After purification, GDP-loaded KRAS, NRAS, and HRAS proteins were immobilized on the surface of Sensor Chip CAP (Cytiva) coated with Biotin CAPture Reagent in an immobilization amount of about 100 to 300 RU. Binding of each compound was evaluated by the Single Cycle Kinetics method, and a running buffer or a compound solution was added to the RAS protein non-immobilized surface and the immobilized surface to obtain a binding response. The flow rate was set to 100 µL/min, and in the compound-adding cycle, compound solutions having different concentrations were intermittently added for 75 seconds each, starting from a low concentration. […] In the blank cycle, a running buffer was intermittently added and not the compound solution. The Biotin CAPture Reagent and RAS proteins were immobilized for each cycle, and at the end of each cycle, the sensor chip was regenerated by the regeneration solution appended to the Biotin CAPture Kit (Cytiva). Measurement was carried out at 30°C.
(§3) The resulting sensorgram was subjected to curve fitting based on a 1:1 binding model on Biacore Insight Evaluation Software or T200 Evaluation Software, and thereby the dissociation constant KD of each compound with respect to KRAS, NRAS, and HRAS was determined. […] Blank indicates a compound from which the KD value with respect to NRAS or HRAS was not obtained.
Take `CCC[C@H]1C(=O)N[C@@H]([C@@H](C)CC)C(=O)N(C2CC2)CC(=O)N(C)[C@H]2C/C=C\CCN(C2=O)[C@@H](Cc2ccc(C)cc2)C(=O)N(C)CC(=O)N[C@@H](CCc2ccc(C(F)(F)F)c(C3CC3)c2)C(=O)N2C[C@H](OCC)C[C@H]2C(=O)NC2(CC(C)(C)C2)C(=O)N(C)[C@@H](C2CCCC2)C(=O)N(C)[C@H](C(=O)N(C)C)CC(=O)N1C` [PP2881]: the “NRAS /KRAS” value was “A (a compound having 10 or more and less than 20 is denoted as A)”. Still for that read-out and setting: the result for `CCO[C@@H]1C[C@H]2C(=O)NC3(CC(C)(C)C3)C(=O)N(C)[C@@H](C3CCCC3)C(=O)N(C)[C@H](C(=O)N3CCCCC3)CC(=O)N(C)[C@H]3CCCCc4ccc(cc4)C[C@@H](C(=O)N(C)CC(=O)N[C@@H](CCc4ccc(C(F)(F)F)c(OC)c4)C(=O)N2C1)N1CC/C=C\C[C@@H](C1=O)N(C)C(=O)CN(C)C(=O)[C@H]([C@@H](C)CC)NC3=O` [PP3093] reads “A (a compound having 10 or more and less than 20 is denoted as A)”.

The target in a further experiment is HRAS wild-type protein (Homo sapiens, UniProt P01112). As to the kind of experiment: Binding to HRAS by surface plasmon resonance (SPR), KD and KD ratio to KRAS. The following applies: ratio of KD for HRAS wild-type protein to KD for KRAS. On the procedure:
as §1, §2, §3
Consider `CCC[C@H]1C(=O)N[C@@H]([C@@H](C)CC)C(=O)N(C2CC2)CC(=O)N(C)[C@H]2C/C=C\CCN(C2=O)[C@@H](Cc2ccc(C)cc2)C(=O)N(C)CC(=O)N[C@@H](CCc2ccc(C(F)(F)F)c(C3CC3)c2)C(=O)N2C[C@H](OCC)C[C@H]2C(=O)NC2(CC(C)(C)C2)C(=O)N(C)[C@@H](C2CCCC2)C(=O)N(C)[C@H](C(=O)N(C)C)CC(=O)N1C` [PP2881], for which the “HRAS /KRAS” value was “A (a compound having 10 or more and less than 20 is denoted as A)”. Still for that read-out and setting: the result for `CCO[C@@H]1C[C@H]2C(=O)NC3(CC(C)(C)C3)C(=O)N(C)[C@@H](C3CCCC3)C(=O)N(C)[C@H](C(=O)N3CCCCC3)CC(=O)N(C)[C@H]3CCCCc4ccc(cc4)C[C@@H](C(=O)N(C)CC(=O)N[C@@H](CCc4ccc(C(F)(F)F)c(OC)c4)C(=O)N2C1)N1CC/C=C\C[C@@H](C1=O)N(C)C(=O)CN(C)C(=O)[C@H]([C@@H](C)CC)NC3=O` [PP3093] reads “A (a compound having 10 or more and less than 20 is denoted as A)”.

For another experiment, the system named is human lung cancer strain NCI-H441.
Assay: not given
In kind it is cell-based.
Conditions: not given
On the procedure: A test compound was dispensed into a U-bottom 384-well plate as 40 nL serially diluted dimethyl sulfoxide solutions using a liquid handler Echo (LABCYTE). […] This cell suspension was dispensed in an amount of 40 µL per well into a plate containing the test compound, and cultured at 37°C in a 5% carbon dioxide gas incubator. Four days later, 20 µL of CellTiter-Glo (registered trademark) (Promega) was added to each well and […] was measured. […]
In turn, `CC[C@H](C)[C@@H]1NC(=O)[C@H](CC(C)C)N(C)C(=O)C[C@@H](C(=O)N2CCOCC2)N(C)C(=O)[C@H](C2CCCC2)N(C)C(=O)C2(CCCC2)NC(=O)[C@@H]2CCCN2C(=O)[C@H](CCc2ccc(C(F)(F)F)c(Cl)c2)NC(=O)CN(C)C(=O)[C@H](Cc2ccc(C)cc2)N(CC2CCC2)C(=O)[C@@H]2CCN2C(=O)[C@H](C)N(C)C1=O` [PP0083] ([NMeL]I[NMeA][Aze][X44][Sar][hPhe(3-Cl-4-CF3)]P[Ac5c][NMeGly(cPent)][NMeD]-Morpholide; lactam N-11) displayed a half-inhibitory concentration (IC50) of 11.3 nM. Turning to `C=CCN1C(=O)[C@@H]2CCN2C(=O)[C@H](C)N(C)C(=O)[C@H]([C@@H](C)CC)NC(=O)[C@H](CC(C)C)N(C)C(=O)C[C@@H](C(=O)N2CCOCC2)N(C)C(=O)[C@H](C2CCCC2)N(C)C(=O)C2(CCCC2)NC(=O)[C@@H]2CCCN2C(=O)[C@H](CCc2ccc(C(F)(F)F)c(Cl)c2)NC(=O)CN(C)C(=O)[C@@H]1Cc1ccc(C)cc1` [PP0088] ([NMeL]I[NMeA][Aze][X50][Sar][hPhe(3-Cl-4-CF3)]P[Ac5c][NMeGly(cPent)][NMeD]-Morpholide; lactam N-11), the 50% inhibitory concentration (IC50) was 4.1 nM. For the molecule `C#CCN1C(=O)[C@@H]2CCN2C(=O)[C@H](C)N(C)C(=O)[C@H]([C@@H](C)CC)NC(=O)[C@H](CC(C)C)N(C)C(=O)C[C@@H](C(=O)N2CCOCC2)N(C)C(=O)[C@H](C2CCCC2)N(C)C(=O)C2(CCCC2)NC(=O)[C@@H]2CCCN2C(=O)[C@H](CCc2ccc(C(F)(F)F)c(Cl)c2)NC(=O)CN(C)C(=O)[C@@H]1Cc1ccc(C)cc1` [PP0090] ([NMeL]I[NMeA][Aze][X52][Sar][hPhe(3-Cl-4-CF3)]P[Ac5c][NMeGly(cPent)][NMeD]-Morpholide; lactam N-11), the concentration for half-maximal inhibition (IC50) turned out to be 1.9 nM. As to `CC[C@H](C)[C@@H]1NC(=O)[C@H](CC(C)C)N(C)C(=O)C[C@@H](C(=O)N2CCOCC2)N(C)C(=O)[C@H](C2CCCC2)N(C)C(=O)C2(CCCC2)NC(=O)[C@@H]2CCCN2C(=O)[C@H](CCc2ccc(C(F)(F)F)c(Cl)c2)NC(=O)CN(C)C(=O)[C@H](Cc2ccc(C)cc2)N(CCC(C)C)C(=O)CN(C)C(=O)CN(C)C1=O` [PP0098] ([NMeL]I[Sar][Sar][X37][Sar][hPhe(3-Cl-4-CF3)]P[Ac5c][NMeGly(cPent)][NMeD]-Morpholide; lactam N-11), the half-maximal inhibitory concentration (IC50) amounted to 9.4 nM. Regarding `CCCN1C(=O)[C@@H]2CCN2C(=O)[C@H](C)N(C)C(=O)[C@H]([C@@H](C)CC)NC(=O)[C@H](CC(C)C)N(C)C(=O)C[C@@H](C(=O)N2CCOCC2)N(C)C(=O)[C@H](C2CCCC2)N(C)C(=O)C2(CCCC2)NC(=O)[C@@H]2CCCN2C(=O)[C@H](CCc2ccc(C(F)(F)F)c(Cl)c2)NC(=O)CN(C)C(=O)[C@@H]1Cc1ccc(OC(F)(F)F)cc1` [PP0136] ([NMeL]I[NMeA][Aze][X51][Sar][hPhe(3-Cl-4-CF3)]P[Ac5c][NMeGly(cPent)][NMeD]-Morpholide; lactam N-11), 19.6 nM corresponded to half-maximal inhibition (IC50).
